According to patent US20030162825A1, “D-amino acid oxidase inhibitors for learning and memory” (SEPRACOR INC., priority 2001, published 2003):
“Also recorded” adds a separate entry of the source.

Key:
[1] = test system: rats; assay: Morris water maze test (learning and memory); assay type: in vivo, rat
Method: Training was conducted in a circular pool (160 cm in diameter) filled with water to a depth of 35 cm. The walls of the pool were blue, and the water was made opaque by the addition of approximately 20 ml of white, non-toxic water-based food dye. Water temperature was maintained at approximately 25° C.
During training, rats learn to swim to a submerged platform (approximately 2.5 cm below the surface) constructed of Nalgene with a roughened Plexiglas surface. The surface diameter was approximately 16 cm and its height was approximately 27.5 cm. Experiments were conducted in a darkened room. Lighting of the water-maze was arranged so that illumination of the pool was dim and equivalent in all quadrants. Both acquisition data and retention probe data were collected using Videomex Morris maze software and interface (Columbus Instruments, Columbus, Ohio). The apparatus monitored the animal's progress using a video camera connected to a monitor and a video analysis computer that was outside the view of the swimming animal. Latencies to escape to the platform, the animal's swimming route, and its time spent in the platform-containing quadrant were measured.
Morris maze acquisition training (learning) consisted of 18 trials presented in 6 blocks of 3 trials each. During all training and testing procedures, the experimenter was blind to the animal group membership. To orient the animals to the task, training began with placement of the animal's front paws onto the platform followed by 10 sec of the animal's standing on the platform. Immediately after the third placement, training commenced with the first block of 3 trials. The platform was placed in the center of the southwest quadrant for all training. On each trial, rats were placed into the pool randomly at one of 6 different angular directions. […] Latency to escape to the platform was measured for each trial. […]
[…] The amount of time spent in the quadrant previously occupied by the platform and number of crosses over the previous position of the platform were recorded for each animal. […]

[2] = molecular target: T1, Porcine kidney D-amino acid oxidase (Sus scrofa, UniProt P00371); assay: D-amino acid oxidase inhibition assay (Amplex Red Hydrogen Peroxide Assay Kit); assay type: biochemical; conditions: D-serine substrate, reaction time five minutes; for inhibition at 40 µg/mL: inhibitor at 40 μg/mL
T1 construct: purchased Sigma Company A-5222; host or cells: porcine kidney
Method: A working solution was prepared by mixing: sodium phosphate buffer (8.7 ml, 0.025M, pH 7.4), D-serine solution (1.0 ml, 100 mM in water), horseradish peroxidase (0.2 ml, 200 U/ml in buffer), and Amplex™ Red solution (0.1 ml, 1 mg dye in 200 μl in DMSO (50 μM in DMSO)). A working enzyme solution was prepared by diluting a D-amino oxidase stock solution (65 U/ml) one hundred fold. The working solution (100 μl) was transferred to wells of a Microfluor B microtiter plate and a solution of the inhibitor in DMF was added.
Control experiments were carried out using DMF in the absence of inhibitor.

T1 sequence (P00371 whole entry): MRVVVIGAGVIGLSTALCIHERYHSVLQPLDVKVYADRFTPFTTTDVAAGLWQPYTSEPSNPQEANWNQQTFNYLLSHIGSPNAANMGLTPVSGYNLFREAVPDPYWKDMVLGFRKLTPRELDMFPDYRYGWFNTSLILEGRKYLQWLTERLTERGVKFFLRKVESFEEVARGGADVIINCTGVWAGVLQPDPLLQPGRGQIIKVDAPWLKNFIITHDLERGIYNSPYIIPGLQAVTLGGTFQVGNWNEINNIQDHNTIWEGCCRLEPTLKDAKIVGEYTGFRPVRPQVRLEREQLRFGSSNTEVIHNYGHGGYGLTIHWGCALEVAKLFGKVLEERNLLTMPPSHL

| IC50 [2] | inhibition at 40 µg/mL [2] | SMILES | other results |
| --- | --- | --- | --- |
| – | – | O=C(O)c1cc2ccccc2[nH]1 [I-2-C, indole-2-carboxylic acid] | retention (seconds swimming in the quadrant previously containing the escape platform) ([1]; first experiment: 200 mg/kg ip four times, one hour before first, second, fourth and sixth training period, four days after training): improved retention; retention in seconds ([1]; second experiment: single injection 200 mg/kg, eight days later, 200 mg/kg): improving effect on retention; also recorded: improved retention; retention ([1]; third experiment: single injection 200 mg/kg, first probe trial): improved retention |
| 2 µM | 93% | O=C(O)c1cc2ccccc2[nH]1 [compound 1] | – |
| – | 90% | O=C(O)c1cc2cc(O)ccc2[nH]1 [compound 2] | – |
| – | 87% | O=C(O)c1ccc[nH]1 [compound 3] | – |
| – | 86% | O=C(O)c1cc2cc(Cl)ccc2[nH]1 [compound 4] | – |
| – | 85% | O=C(O)c1cc2ccccc2o1 [compound 5] | – |
| – | 58% | Cn1c(C(=O)O)cc2ccccc21 [compound 6] | – |
| – | 32% | COc1ccc2[nH]c(C(=O)O)cc2c1 [compound 7] | – |
| 17 µM | – | O=C(O)c1ccc([N+](=O)[O-])c2c1NC(c1ccccc1)C1CC=CC21 (stereo not shown) [compound 10] | – |
| 29 µM | – | O=C(O)c1ccc([N+](=O)[O-])c2c1NC(c1ccc([N+](=O)[O-])cc1)C1CC=CC21 (stereo not shown) [compound 11] | – |
